One test concerns the target T1, PI3K delta (Homo sapiens, UniProt O00329).
T1 construct: for the full-length p110-d subunit are generated and fused by overlapping PCR; p85(iSH2) fusion partner (see partner chain) (N); His tag (C); made in house; host or cells: baculovirus; Tn5 (Trichoplusia ni) or TiniPro insect cells
Briefly: PI3K delta kinase assay (Kinase-Glo luminescence). The format is biochemical. An outline of the steps:
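Construct BV-1060, p85 iSH2–linker–full-length p110δ, His-tagged, at 10 nM, with 1 μM ATP and 10 μg/mL phosphatidylinositol in pH 7.5 Tris, 3 mM MgCl2, 50 mM NaCl, 0.05% CHAPS. Run 60 min at room temperature; remaining ATP read by Kinase-Glo luminescence; IC50 from 4-parameter logistic fit of 8 concentrations.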

The test system of test [1] is S6 Ribosomal Protein phosphorylation Ser235/236 in TSC1 null mouse embryo fibroblast (MEF) cells. Briefly: Reverse protein array assay, S6 Ribosomal Protein phosphorylation Ser235/236 in TSC1 null MEF cells. It counts as cell-based. The settings on record: 1 h, pS6 ribosomal protein Ser235/236, 60 minutes incubation, read-out: p-S6 IC50. In short, it runs like this:
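TSC1−/− MEFs, seeded and held ≥20 h at 37 °C/5% CO2, were exposed to 8-step serial compound dilutions (0.02% DMSO final; DMSO vehicle control) for 60 min at 37 °C. Cells were then lysed on ice for 10 min and lysates spotted onto reverse protein array chips.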

The subject of test [2] is PKB Ser473 phosphorylation in Rat1-myr-HA-p110 beta cells. Briefly: Reverse protein array assay, PKB Ser473 phosphorylation in Rat1-myr-p110 beta cells. The format is cell-based. As to conditions: 0.5 h, pAkt Ser473, 30 minutes incubation, read-out: p-PKB IC50. In short, it runs like this:
(§1)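 Lysates were arrayed at four dilutions, and phospho-PKB Ser473 was quantified by relative fluorescence signal. They came from Rat1-myr-HA-p110 alpha, beta or delta cells exposed for 30 min at 37 °C to an 8-point compound series with 0.2% DMSO constant.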

Test [3] deals with PKB Ser473 phosphorylation in Rat1-myr-HA-p110 delta cells. Briefly: Reverse protein array assay, PKB Ser473 phosphorylation in Rat1-myr-p110 delta cells. The settings on record: read-out: p-PKB IC50. The format is cell-based. In short, it runs like this:
as §1

Structures are written as SMILES.

T1 sequence (O00329 with tags, fused parts or gaps limits assumed): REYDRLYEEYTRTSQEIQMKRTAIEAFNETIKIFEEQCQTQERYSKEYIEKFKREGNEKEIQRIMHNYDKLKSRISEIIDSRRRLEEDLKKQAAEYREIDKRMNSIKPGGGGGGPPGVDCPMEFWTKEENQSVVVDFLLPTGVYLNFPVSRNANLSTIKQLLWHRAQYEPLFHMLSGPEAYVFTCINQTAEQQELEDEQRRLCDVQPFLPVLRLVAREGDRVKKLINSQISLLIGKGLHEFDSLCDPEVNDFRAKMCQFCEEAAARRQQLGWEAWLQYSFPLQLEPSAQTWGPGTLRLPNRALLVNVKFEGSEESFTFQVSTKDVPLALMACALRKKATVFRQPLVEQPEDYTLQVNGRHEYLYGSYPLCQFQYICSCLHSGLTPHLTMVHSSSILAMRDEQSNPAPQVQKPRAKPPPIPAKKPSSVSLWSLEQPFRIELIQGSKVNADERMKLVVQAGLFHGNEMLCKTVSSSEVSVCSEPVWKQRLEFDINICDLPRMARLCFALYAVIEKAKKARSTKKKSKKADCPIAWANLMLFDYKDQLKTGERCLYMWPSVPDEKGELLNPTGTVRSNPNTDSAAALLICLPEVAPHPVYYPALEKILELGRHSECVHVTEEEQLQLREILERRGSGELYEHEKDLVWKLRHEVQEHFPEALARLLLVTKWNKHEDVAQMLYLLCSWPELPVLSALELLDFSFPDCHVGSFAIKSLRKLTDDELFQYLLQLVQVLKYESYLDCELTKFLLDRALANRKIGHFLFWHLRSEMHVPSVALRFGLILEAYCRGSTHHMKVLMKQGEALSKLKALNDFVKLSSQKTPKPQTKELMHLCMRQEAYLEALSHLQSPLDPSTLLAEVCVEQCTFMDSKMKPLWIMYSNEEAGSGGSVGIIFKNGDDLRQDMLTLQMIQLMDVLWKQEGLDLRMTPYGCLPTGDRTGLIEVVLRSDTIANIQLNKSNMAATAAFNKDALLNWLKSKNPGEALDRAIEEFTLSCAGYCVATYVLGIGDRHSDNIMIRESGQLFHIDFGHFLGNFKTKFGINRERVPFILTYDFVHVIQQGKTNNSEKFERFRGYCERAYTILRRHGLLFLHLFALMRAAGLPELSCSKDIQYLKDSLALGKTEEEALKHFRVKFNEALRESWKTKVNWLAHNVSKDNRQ

With `Cc1nn(C)cc1-n1c(=O)n(C)c2cnc3ccc(-c4ccc(N)nc4)cc3c21` [Example 23.1, 8-(6-Amino-pyridin-3-yl)-1-(1,3-dimethyl-1H-pyrazol-4-yl)-3-methyl-1,3-dihydro-imidazo[4,5-c]quinolin-2-one], the IC50 (in general, the concentration that inhibits the measured activity by half) amounted to 15 nM at PI3K delta, 4 nM in test [1], 7 nM in test [2] and 26 nM in test [3].

For the compound `Cc1nn(C(C)C)cc1-n1c(=O)n(C)c2cnc3ccc(-c4ccc(N)nc4)cc3c21` [Example 23.2, 8-(6-Amino-pyridin-3-yl)-1-(1-isopropyl-3-methyl-1H-pyrazol-4-yl)-3-methyl-1,3-dihydro-imidazo[4,5-c]quinolin-2-one], the 50% inhibitory concentration (IC50) on PI3K delta turned out to be 43 nM; in test [1], 2 nM; in test [2], 6 nM; in test [3] it was 18 nM.

With `COCCOc1ccc(-c2ccc3ncc4c(c3c2)n(-c2cn(C)nc2C)c(=O)n4C)cc1OC` [Example 30.1, 1-(1,3-Dimethyl-1H-pyrazol-4-yl)-8-[3-methoxy-4-(2-methoxy-ethoxy)-phenyl]-3-methyl-1,3-dihydro-imidazo[4,5-c]quinolin-2-one], the IC50 at PI3K delta was 36 nM; in test [1], 14 nM; in test [2] it was 38 nM; in test [3] it was 91 nM.

On to `Cc1nn(C)c(C)c1-n1c(=O)n(C)c2cnc3ccc(-c4cccc(O)c4)cc3c21` [Example 32.2, 8-(3-Hydroxy-phenyl)-3-methyl-1-(1,3,5-trimethyl-1H-pyrazol-4-yl)-1,3-dihydro-imidazo[4,5-c]quinolin-2-one], for which the IC50 on PI3K delta was 38 nM; in test [1], 558 nM; in test [2], 725 nM; in test [3], 366 nM.

In the case of `CNC(=O)c1ccc(-c2ccc3ncc4c(c3c2)n(-c2cn(C)nc2C)c(=O)n4C)cc1` [Example 43.1, 4-[1-(1,3-Dimethyl-1H-pyrazol-4-yl)-3-methyl-2-oxo-2,3-dihydro-1H-imidazo[4,5-c]quinolin-8-yl]-N-methyl-benzamide], the IC50 is 218 nM at PI3K delta, 3 nM in test [1], 11 nM in test [2] and 46 nM in test [3].

`Cc1nn(C)cc1-n1c(=O)n(C)c2cnc3ccc(-c4cncc(N)c4)cc3c21` [Example 45.1, 8-(5-Amino-pyridin-3-yl)-1-(1,3-dimethyl-1H-pyrazol-4-yl)-3-methyl-1,3-dihydro-imidazo[4,5-c]quinolin-2-one]: the IC50 on PI3K delta was 19 nM; in test [1], 43.5 nM; in test [2], 80 nM; in test [3] it was 154 nM.

Take `Cc1nn(CC(=O)N(C)C)cc1-n1c(=O)n(C)c2cnc3ccc(-c4ccc(-n5cccn5)cc4)cc3c21` [Example 51.2, N,N-Dimethyl-2-{3-methyl-4-[3-methyl-2-oxo-8-(4-pyrazol-1-yl-phenyl)-2,3-dihydro-imidazo[4,5-c]quinolin-1-yl]-pyrazol-1-yl}-acetamide]: the IC50 at PI3K delta turned out to be 453 nM; in test [1] it was 1 nM; in test [2] it was 6 nM; in test [3] it was 22 nM.

With `CCOc1ncc(-c2ccc3ncc4c(c3c2)n(-c2cn(C)nc2C)c(=O)n4C)cn1` [Example 52, 1-(1,3-Dimethyl-1H-pyrazol-4-yl)-8-(2-ethoxy-pyrimidin-5-yl)-3-methyl-1,3-dihydro-imidazo[4,5-c]quinolin-2-one], the 50% inhibitory concentration (IC50) came out at 37 nM at PI3K delta, 48 nM in test [1], 9 nM in test [2] and 96 nM in test [3].

On to `COCc1cncc(-c2ccc3ncc4c(c3c2)n(-c2cn(C)nc2Cl)c(=O)n4C)c1` [Example 54.2, 1-(3-Chloro-1-methyl-1H-pyrazol-4-yl)-8-(5-methoxymethyl-pyridin-3-yl)-3-methyl-1,3-dihydro-imidazo[4,5-c]quinolin-2-one], for which the IC50 on PI3K delta amounted to 20 nM; in test [1] it was 1 nM; in test [2] it was 43 nM; in test [3] it was 44 nM.

As to `CCOc1cncc(-c2ccc3ncc4c(c3c2)n(-c2cn(C)nc2C)c(=O)n4C)c1` [Example 56.1, 1-(1,3-Dimethyl-1H-pyrazol-4-yl)-8-(5-ethoxy-pyridin-3-yl)-3-methyl-1,3-dihydro-imidazo[4,5-c]quinolin-2-one], the IC50 at PI3K delta was 6 nM; in test [1] it was 4 nM; in test [2] it was 29 nM; in test [3], 50 nM.

In the case of `CCn1cc(-n2c(=O)n(C)c3cnc4ccc(-c5cncc(OC(C)C)c5)cc4c32)c(C)n1` [Example 58.4, 1-(1-Ethyl-3-methyl-1H-pyrazol-4-yl)-8-(5-isopropoxy-pyridin-3-yl)-3-methyl-1,3-dihydro-imidazo[4,5-c]quinolin-2-one], the IC50 at PI3K delta came out at 12 nM; in test [1] it was 2 nM; in test [2], 139 nM; in test [3], 86 nM.

Consider `COCCOc1cncc(-c2ccc3ncc4c(c3c2)n(-c2cn(C)nc2C)c(=O)n4C)c1` [Example 59.1, 1-(1,3-Dimethyl-1H-pyrazol-4-yl)-8-[5-(2-methoxy-ethoxy)-pyridin-3-yl]-3-methyl-1,3-dihydro-imidazo[4,5-c]quinolin-2-one], for which the concentration for half-maximal inhibition (IC50) at PI3K delta turned out to be 91 nM; in test [1] it was 6 nM; in test [2] it was 265 nM; in test [3] it was 204 nM.

Consider `Cc1nn(C)cc1-n1c(=O)n(C)c2cnc3ccc(-c4cncc(OCC5CC5)c4)cc3c21` [Example 61, 8-(5-Cyclopropylmethoxy-pyridin-3-yl)-1-(1,3-dimethyl-1H-pyrazol-4-yl)-3-methyl-1,3-dihydro-imidazo[4,5-c]quinolin-2-one], for which the IC50 on PI3K delta amounted to 17 nM; in test [1], 1 nM; in test [2] it was 28 nM; in test [3], 246 nM.

Regarding `Cc1nn(C)cc1-n1c(=O)n(C)c2cnc3ccc(-c4cnc5c(c4)nc(N(C)C)n5C)cc3c21` [Example 70, 8-(2-Dimethylamino-3-methyl-3H-imidazo[4,5-b]pyridin-6-yl)-1-(1,3-dimethyl-1H-pyrazol-4-yl)-3-methyl-1,3-dihydro-imidazo[4,5-c]quinolin-2-one], the IC50 at PI3K delta amounted to 163 nM; in test [1] it was 16 nM; in test [2], 176 nM; in test [3], 275 nM.

With `Cc1nn(C)c(C)c1-n1c(=O)n(C)c2cnc3ccc(-c4cnc(N)nc4)cc3c21` [Example 81.2, 8-(2-Amino-pyrimidin-5-yl)-3-methyl-1-(1,3,5-trimethyl-1H-pyrazol-4-yl)-1,3-dihydro-imidazo[4,5-c]quinolin-2-one], the 50% inhibitory concentration (IC50) amounted to 30 nM on PI3K delta, 19 nM in test [1], 295 nM in test [2] and 382 nM in test [3].

Turning to `CCOc1cc(-c2ccc3ncc4c(c3c2)n(-c2cn(C)nc2C)c(=O)n4C)cnc1C` [Example 85.1, 1-(1,3-Dimethyl-1H-pyrazol-4-yl)-8-(5-ethoxy-6-methyl-pyridin-3-yl)-3-methyl-1,3-dihydro-imidazo[4,5-c]quinolin-2-one], the IC50 came to 3 nM at PI3K delta, 1 nM in test [1], 6 nM in test [2] and 33 nM in test [3].

On to `Cc1ncc(-c2ccc3ncc4c(c3c2)n(-c2cn(C)nc2Cl)c(=O)n4C)cc1N` [Example 88.1, 8-(5-Amino-6-methyl-pyridin-3-yl)-1-(3-chloro-1-methyl-1H-pyrazol-4-yl)-3-methyl-1,3-dihydro-imidazo[4,5-c]quinolin-2-one], for which the IC50 came to 4 nM on PI3K delta, 2 nM in test [1], 8 nM in test [2] and 15 nM in test [3].

Regarding `CCOc1cc(-c2ccc3ncc4c(c3c2)n(-c2cn(C)nc2C)c(=O)n4C)ccn1` [Example 91, 1-(1,3-Dimethyl-1H-pyrazol-4-yl)-8-(2-ethoxy-pyridin-4-yl)-3-methyl-1,3-dihydro-imidazo[4,5-c]quinolin-2-one], the IC50 on PI3K delta is 203 nM; in test [1] it was 36 nM; in test [2], 391 nM; in test [3] it was 631 nM.

For the compound `COc1ccc(-c2ccc3ncc4c(c3c2)n(-c2cn(CCO)nc2C)c(=O)n4C)cn1` [Example 103.1, 1-[1-(2-Hydroxy-ethyl)-3-methyl-1H-pyrazol-4-yl]-8-(6-methoxy-pyridin-3-yl)-3-methyl-1,3-dihydro-imidazo[4,5-c]quinolin-2-one], the IC50 on PI3K delta was 19 nM; in test [1], 13 nM; in test [2], 30 nM; in test [3], 66 nM.

In the case of `CCOc1ccc(-c2ccc3ncc4c(c3c2)n(-c2cn(CCO)nc2C)c(=O)n4C)cn1` [Example 103.2, 8-(6-Ethoxy-pyridin-3-yl)-1-[1-(2-hydroxy-ethyl)-3-methyl-1H-pyrazol-4-yl]-3-methyl-1,3-dihydro-imidazo[4,5-c]quinolin-2-one], the IC50 at PI3K delta worked out at 71 nM; in test [1], 3 nM; in test [2], 14 nM; in test [3], 106 nM.
